ChEMBL document CHEMBL1127708, “Aromatase inhibitors. Syntheses and structure-activity studies of novel pyridyl-substituted indanones, indans, and tetralins” (J Med Chem, 1994)

Assays:
[1] = biological target: T1, Aromatase (Rattus norvegicus, UniProt P22443)
T1 sequence (P22443 whole entry): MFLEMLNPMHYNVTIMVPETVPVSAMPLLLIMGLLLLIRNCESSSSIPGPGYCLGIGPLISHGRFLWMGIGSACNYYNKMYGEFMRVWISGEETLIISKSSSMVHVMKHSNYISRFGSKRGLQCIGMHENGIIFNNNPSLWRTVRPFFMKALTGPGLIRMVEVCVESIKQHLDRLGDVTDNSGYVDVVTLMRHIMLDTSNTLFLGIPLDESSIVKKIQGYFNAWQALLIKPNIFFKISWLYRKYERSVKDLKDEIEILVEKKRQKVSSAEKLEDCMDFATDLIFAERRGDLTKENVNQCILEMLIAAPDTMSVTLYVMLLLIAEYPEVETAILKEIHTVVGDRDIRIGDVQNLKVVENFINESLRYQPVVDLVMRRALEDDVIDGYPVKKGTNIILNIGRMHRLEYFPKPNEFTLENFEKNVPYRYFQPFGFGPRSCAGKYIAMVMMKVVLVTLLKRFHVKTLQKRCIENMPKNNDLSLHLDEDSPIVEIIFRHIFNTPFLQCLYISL

[2] = species: Rattus norvegicus; format: functional; conditions: dose 10 mg/kg
[3] = species: Rattus norvegicus; format: functional; conditions: dose 10 mg/kg; remark: listed apart in the source
[4] = species: Rattus norvegicus; format: functional; conditions: dose 10 mg/kg; remark: listed apart in the source
[5] = species: Rattus norvegicus; format: functional; conditions: dose 10 mg/kg; remark: listed apart in the source
[6] = species: Rattus norvegicus; format: functional; conditions: dose 10 mg/kg; remark: listed apart in the source
[7] = species: Rattus norvegicus; format: functional; conditions: dose 10 mg/kg; remark: listed apart in the source
[8] = species: Rattus norvegicus; format: functional; conditions: dose 10 mg/kg; remark: listed apart in the source
[9] = species: Rattus norvegicus; format: functional
[10] = species: Rattus norvegicus; format: functional; remark: listed apart in the source
[11] = species: Rattus norvegicus; format: functional; remark: listed apart in the source
[12] = species: Rattus norvegicus; format: functional; remark: listed apart in the source
[13] = species: Rattus norvegicus; format: functional; conditions: dose 10 mg/kg; remark: listed apart in the source
[14] = species: Rattus norvegicus; format: functional; remark: listed apart in the source
[15] = species: Rattus norvegicus; format: functional; remark: listed apart in the source
[16] = species: Rattus norvegicus; format: functional; conditions: dose 10.3 mg/kg
[17] = species: Rattus norvegicus; format: functional; conditions: dose 10.3 mg/kg; remark: listed apart in the source
[18] = species: Rattus norvegicus; format: functional; conditions: dose 10.3 mg/kg; remark: listed apart in the source
[19] = species: Rattus norvegicus; format: functional; conditions: dose 10.3 mg/kg; remark: listed apart in the source
[20] = species: Rattus norvegicus; format: functional; conditions: dose 10.3 mg/kg; remark: listed apart in the source
[21] = species: Rattus norvegicus; format: functional; conditions: dose 10.3 mg/kg; remark: listed apart in the source
[22] = species: Rattus norvegicus; format: functional; conditions: dose 10.3 mg/kg; remark: listed apart in the source

O=C1c2ccc(O)cc2CC1Cc1ccncc1 (stereo not drawn)
Effect [1]: 160

CCC1(c2ccc(N)cc2)CCC(=O)NC1=O (stereo not drawn) [AMINOGLUTETHIMIDE]
Change of tumor area [2]: 17%
Change of tumor area [3]: 23%
Of tumors [4]: 6%
No. of tumors [5]: 35
No. of tumors [6]: 7
Change of tumor area [7]: 4%
Change of tumor area [8]: 54%

CCC(=O)OC1CCC2C3CCC4=CC(=O)CCC4C3CCC12C (stereo not drawn)
Change of tumor area [9]: 19%
Change of tumor area [10]: 19%
Change of tumor area [11]: 25%
Change of tumor area [12]: 36%
Change of tumor area [13]: 141%
No. of tumors [14]: 36
No. of tumors [15]: 12

Oc1cccc2c1CCC(Cc1ccncc1)C2 (stereo not drawn)
Change of tumor area [16]: 24%
Change of tumor area [17]: 19%
Change of tumor area [18]: 16%
Change of tumor area [19]: 41%
No. of tumors [20]: 37
No. of tumors [21]: 4
Change of tumor area [22]: 123%

COc1ccc2c(c1)CC(Cc1ccncc1)C2=O (stereo not drawn)
Effect [1]: 150
